Experiment [1] has as its system PSG-1 gene. Briefly: PSG-1 gene expression in placental trophoblastic cells, real-time RT-PCR. The settings on record: for expression level of PSG-1 gene relative to non-added section: after 72 hours. Type of experiment: cell-based, human. The method, then:
The influence upon these two genes (PSG-1 and CSH-1) of 1,5-AG was analyzed by a real-time RT-PCR method using placental trophoblastic cells. As a preliminary study, the expression level of PSG-1 was analyzed at three concentrations (1 μg/mL or less, 40 μg/mL and 160 μg/mL of 1,5-AG) and for three sampling times (3, 24 and 72 hours). A test was conducted by the following method.
Human placental villous trophoblastic cells (ScienCell Research Laboratories)
The human placental villous trophoblastic cells were initiated in a T-75 flask by using a trophoblast medium (to be simply referred to as “medium” hereinafter) to be cultured in a CO2 incubator (5% CO2, 37° C., moistening). Medium exchange was carried out every 2 days, the cells were collected when 80% confluence was reached, and cells having a passage number of 2 were used in this test. Stated more specifically, after the cells were washed with D-PBS (−), the cells were separated by using 0.25% trypsin-EDTA, and a medium was added to neutralize trypsin. Then, the supernatant was removed by centrifugation (180 g, 5 minutes), a new medium was added to stir the cells, the number of the cells was counted by using a corpuscle calculating board, and a medium was used to achieve a target concentration (4.0×10^3 cells/100 μL).
The sample was added to mediums to achieve 1,5-AG final concentrations of 40 μg/mL and 160 μg/mL. When the final concentration was not more than 1 μg/mL, 1,5-AG was not added. Stated more specifically, a 1,5-AG aqueous solution having a concentration of 40 mg/mL was added to a test medium in a ratio of 1/1000 or 1/250 to achieve a final concentration of 40 μg/mL or 160 μg/mL, and the 1,5-AG solution was sterilized with a filter to be used in the test. […]
The PCR reaction was carried out under the conditions of 95° C.·30 sec−(95° C.·10 sec−60° C.·30 sec)×45 cycles−95° C.·15 sec−55° C.·15 sec−95° C.·15 sec, and the dissociation curve of the PCR product was obtained after the end of the PCR reaction. The relative expression level was calculated by the ? […]
Background: In qPCR the cycle at which signal appears reflects the starting amount.

Experiment [2] deals with insulinoma cell lines. The settings on record: cited from earlier work.
In experiment [3] the test system is type 2 diabetes model. The note with it: in vivo; cited from earlier work.

Each structure is given as a SMILES string.

Consider `OC[C@H]1OC[C@H](O)[C@@H](O)[C@@H]1O` [1,5-AG, 1,5-anhydro-D-glucitol], for which the “expression level of PSG-1 gene relative to non-added section” value in experiment [1] (40 μg/mL 1,5-AG) came to 1.54 times; in experiment [1] (160 μg/mL 1,5-AG), 1.62 times. For the same molecule, the “expression level of PSG-1 gene over treatment time” value in experiment [1] (1,5-AG added sections, 3, 24 and 72 hours) is listed as “rose in proportion to the sample treatment time”. In addition, the secretion of insulin entry in experiment [2] is given as “promotes the secretion of insulin”. For the same molecule, the anti-diabetic effect entry in experiment [3] is listed as “anti-diabetic effect”.
